Measured values: patent publication US4390523A, “Sorbose for inhibiting fermentation acids in the mouth” (priority 1972, dated 1983)
“And” between values parts separate entries of the source, which are not always exact repeats. Identical values can stand only once. “Also recorded” adds a separate entry of the source.

What was measured:
[1] = Chromatographic examination of the urine of animals ingesting sorbose; format: in vivo, WISTAR rat
Method: Thus, sorbose was administered orally to rats of the WISTAR type, as a supplement to the usual food ration, in a dose of 0.330 grams per 100 grams of body weight; such a dose would correspond to a daily intake of 198 grams of sorbose in a 60 kg person. This test was carried on for four weeks and three months. Each morning, 1 milliliter per 100 grams of body weight of a sorbose solute in water containing 0.330 g/ml was administered orally to each of the animals.

[2] = Urinary biological parameters before and during oral administration of sorbose (Table I); format: in vivo, WISTAR rat
Method: In the course of this experiment, detailed biological examinations concerning the urine and blood were carried out.
The urine examinations comprised the following: determination of the reducing power (copper-neocuproin method), determination of the true glycosuria (glucose-oxydase method), determination of the proteinuria, measurement of the urinary pH, determination of the urinary ionogram relating to the chlorine ions, sodium and potassium.

[3] = Clinical observation and weight development during oral administration of sorbose (food value); format: in vivo, WISTAR rat; settings: 0.330 g per 100 g of body weight orally
Excerpt: The food value of sorbose has been studied in a second series of tests.

[4] = system: ROCKFELLER mice and WISTAR rats; assay: Overall toxicity and tolerance tests of sorbose in mice and rats; format: in vivo, mouse; rat
Excerpt: (§1) The toxicity of sorbose has been studied in a first series of tests.
(§2) The test animals were ROCKFELLER mice and WISTAR rats.

[5] = Acute toxicity and lethalness of sorbose in mice; format: in vivo, ROCKFELLER mouse; settings: mouse, in vivo, ip; intraperitoneal; ROCKFELLER mice; Karber and Behrens method; read-out: lethal dose 50 (LD50)
Method: as §1, §2
(§3) Thus, solutes of sorbose (concentrations used: 615, 700, 900, 1000 and 1100 mg per ml) were administered orally, intravenously and intraperitoneally in different doses and concentrations to male mice of the ROCKFELLER type and to male rats of the WISTAR type.

[6] = system: male mice of the ROCKFELLER type; assay: Acute toxicity and lethalness of sorbose in mice; format: in vivo, ROCKFELLER mouse; settings: mice
Method: as §1, §2, §3

[7] = system: viscera: stomach, small intestine, large intestine, liver, kidneys and pancreas; assay: Anatomical and histopathological observations at the end of the tests; format: in vivo, WISTAR rat
Excerpt: At the end of the tests the animals were put to death so that anatomical and histopathological observations could be made.

[8] = Biological parameters of blood before and during oral administration of sorbose (Table II); settings: WISTAR rats, oral ingestion
Method: (§4) This test was carried on for four weeks and three months. Each morning, 1 milliliter per 100 grams of body weight of a sorbose solute in water containing 0.330 g/ml was administered orally to each of the animals.
(§5) The examinations of the blood comprised the following:
(§6) determination of the true glycemia (glucose-oxydase dosage),
(§7) determination of the ionemia (chlorides-phosphates-bicarbonates-sodium-potassium), azotemia, proteinemia, albuminemia, calcemia, cholesterolemia, uricemia and creatinemia, the total bilirubinemia and the levels of the alkaline phosphatases, the creatine-phosphokinases and the glutamino-oxaloacetic transaminases (these determinations were effected with the aid of a Technicon SM A 6+SM A 12 autoanalyzer).
(§8) These biological tests were carried out first on animals fed normally and then on the same animals in the course of the following weeks during which sorbose was being administered as a supplement to the food ration, as hereinbefore described.

[9] = system: male rats of the WISTAR type; assay: Acute toxicity and lethalness of sorbose in rats; format: in vivo, WISTAR rat; settings: rats
Method: as §1, §2, §3

[10] = Acute toxicity and lethalness of sorbose in rats; format: in vivo, WISTAR rat; settings: rat, in vivo, ip; intraperitoneal; WISTAR rats; Karber and Behrens method; read-out: lethal dose 50 (LD50)
Method: as §1, §2, §3

[11] = cited from earlier work
man = assay: Hypersorbemia produced in man; format: in vivo; settings: 1 gram per kg, empty stomach, in one lot
Method: To complete the tests concerned with animals, tests were carried out for hypersorbemia produced in man (ingestion on an empty stomach in one lot of a dose of sorbose equivalent to 1 gram per kg of weight).

[12] = system: oral bacteria (dilute human saliva); assay: Formation of acids and lowering of pH by fermentation by oral bacteria (Table III); format: cell-based; settings: for pH of medium / NaOH necessary for neutralization: 1 ml of 18% solution in 10 ml medium; for pH of medium: saliva, 37° C.; for NaOH necessary for neutralization: N/40 NaOH
Method: A series of tubes containing 10 ml of a sugarless nutritive culture medium at pH 7 was prepared. These tubes were sterilized by passing them through an autoclave at 120° C. for 20 minutes.
1 ml of sterile water was introduced into a first series of five tubes to make a control series.
1 ml of a sterile 18% solution of dextrose (weight/volume=W/V) was introduced into a second series of five tubes.
1 ml of a sterile 18% solution of saccharose (W/V) was introduced into a third series of five tubes.
1 ml of a sterile 18% solution of sorbose (W/V) was introduced into a fourth series of five tubes.
The sterile solutions of dextrose, saccharose and sorbose were obtained by sterilizing filtration by the usual technique.
A dilution of human saliva was prepared for immediate use and four tubes of each series were inoculated with the same volume of dilute saliva.
The formation of acids was followed by electric measurement of the pH and by determination of the quantity of acids formed; this determination was effected with a N/40 sodium/hydroxide solution, phenolphthalein being used as a neutralization indicator; a first determination was made before incubation, the following four determinations after incubations of 3, 6, 10 and 24 hours, respectively, at 37° C.
The results are assembled in Table III (pH value and value of the number of ml of sodium hydroxide necessary for neutralization).

[13] = rat, in vivo, po
Method: as §4, §5, §6, §7, §8

[14] = 330 mg/100 g oral, a = first week, rats 1-6
[15] = 330 mg/100 g oral, b = fifth week, rats 1-6
[16] = 330 mg/100 g oral, c = thirteenth week, rats 1-6
[17] = prolonged administration orally and in high doses

With `O=C(CO)[C@H](O)[C@@H](O)[C@H](O)CO` [sorbose] the “glucose and sorbose in the urine by chromatographic examination” value [1] was “absence of glucose and the presence of sorbose”, the “physiological proteinuria (conclusion)” value ([2]; 330 mg/100 g oral, 13 weeks) was “does not lead to a significant modification of the physiological proteinuria” and the “reducing power in the urine (conclusion)” value ([2]; 330 mg/100 g oral, 13 weeks) was “causes the appearance of the reducing power in the urine”. The “urinary ionogram (conclusion)” value ([2]; 330 mg/100 g oral, 13 weeks) was “does not modify the urinary ionogram”, the “urinary pH (conclusion)” value ([2]; 330 mg/100 g oral, 13 weeks) was “does not modify the urinary pH” and the urinary potassium [2, 14] was 1.10 meq/24 h and 1.03 meq/24 h and 1.68 meq/24 h and 1.26 meq/24 h and 1.48 meq/24 h and 1 meq/24 h. For the same molecule, the “urinary total reducing power” value [2, 14] was 56 mg/24 h and 30 mg/24 h and 39 mg/24 h and 38 mg/24 h and 35 mg/24 h and 28 mg/24 h, the urinary chlorides [2, 15] was 1.27 meq/24 h and 0.90 meq/24 h and 1.11 meq/24 h and 1.56 meq/24 h and 1.00 meq/24 h and 1.46 meq/24 h and the “urinary pH” value [2, 15] was 8.5 and 8.2 and 9.2 and 9.1. For the same molecule, the urinary chlorides [2, 16] was 0.92 meq/24 h and 0.79 meq/24 h and 0.70 meq/24 h and 0.90 meq/24 h and 1.08 meq/24 h and 0.76 meq/24 h, the “urinary pH” value [2, 16] was 9 and 8.5 and 8.8 and 9.1 and the urinary potassium [2, 16] was 1.19 meq/24 h and 0.99 meq/24 h and 1.20 meq/24 h and 1.26 meq/24 h and 1.08 meq/24 h. The urinary sodium [2, 16] was 0.39 meq/24 h and 0.34 meq/24 h and 0.54 meq/24 h and 0.45 meq/24 h and 0.46 meq/24 h and 0.61 meq/24 h, the “urinary total reducing power” value [2, 16] was 36 mg/24 h and 31 mg/24 h and 32 mg/24 h and 41 mg/24 h and the glycosuria ([2]; during oral administration, 330 mg/100 g, 13 weeks) was “No glycosuria was detected; also recorded: does not result in true glycosuria”. For the same molecule, the clinically detectable anomalies ([3]; four weeks and three months) was “no clinically detectable anomalies were observed”, the weight development ([3]; versus control animals) was “comparable to that observed in control animals” and the “toxicity (acute, subacute and chronic)” value ([4]; ROCKFELLER mice and WISTAR rats) was “devoid of acute, subacute and chronic toxicity; also recorded: absence of acute toxicity”. The “clinical and biological tolerance” value [4, 17] was “tolerated perfectly on the clinical and biological planes”, the “histologically detectable visceral lesion” value [4, 17] was “does not result in any histologically detectable visceral lesion” and the LD50 [5] was 13600 mg/kg. For the same molecule, the “dose at which no lethalness was observed” value ([6]; intravenously) was 10 grams per kg of body weight, the “dose at which no lethalness was observed” value ([6]; orally) was 27.5 grams per kg of body weight and the “anatomical anomaly of the viscera” value [7] was “no anatomical anomaly was found”. The “histopathological change of structure of the organs” value [7] was “did not enable any histopathological change of structure of the organs examined to be detected”, the “tolerance (conclusion from the biological analyses)” value [8] was “tolerated perfectly” and the “dose at which no lethalness was observed” value ([9]; intravenously) was 5.5 grams per kg of body weight. For the same molecule, the “dose at which no lethalness was observed” value ([9]; orally) was 11 grams per kg of body weight, the LD50 [10] was 12800 mg/kg and the solubility in alcohol [11] was “not very soluble in alcohol”. The solubility in water [11] was “rather soluble in water”, the tolerance in man (man) was “well tolerated” and the “total reducing power of the blood in man” value (man) was “heightening of the total reducing power of the blood, which disappeared in a few hours”. The “true glycemia in man” value (man) was “did not produce any variation in the true glycemia”, the pH of medium ([12]; 0 hours) was 7.0 and the “NaOH necessary for neutralization” value ([12]; 0 hours) was 2.50 mL. The pH of medium ([12]; 3 hours) was 6.80, the “NaOH necessary for neutralization” value ([12]; 3 hours) was 2.25 mL and the pH of medium ([12]; 6 hours) was 6.90. The “NaOH necessary for neutralization” value ([12]; 6 hours) was 2.20 mL, the pH of medium ([12]; 10 hours) was 6.80 and the “NaOH necessary for neutralization” value ([12]; 10 hours) was 1.90 mL. The pH of medium ([12]; 24 hours) was 6.80, the “NaOH necessary for neutralization” value ([12]; 24 hours) was 1.90 mL and the “formation of acids / acidification (conclusion)” value ([12]; medium inoculated with dilute saliva) was “does not give rise to the formation of acids or to a lowering of the pH; also recorded: does not lead, by fermentation by bacteria of the mouth, to the production of fermentation acids or to a lowering of the pH; also recorded: no formation of acids or lowering of the pH; also recorded: does not give rise to the formation of acids by oral bacteria”. For the same molecule, the “cariogenicity (conclusion)” value ([12]; oral bacteria) was “non-cariogenic”, the “serobiogram (conclusion)” value [13] was “does not modify the serobiogram” and the “total reducing power of the serum (conclusion)” value [13] was “does not modify the value of the true glycemia or that of the total reducing power of the serum”.
